# Experiments:
# Assay type in all cases: functional, organism-based
# Zymoseptoria tritici [1] = assay: Antifungal activity against azoxystrobin-sensitive Zymoseptoria tritici T0460 carrying cytochrome-b G143 allele assessed as fungal colony perpendicular diameter changes after 10 days at 18 degC by spotting on PDA medium assay; conditions: T0460, 240 h
# Zymoseptoria tritici [2] = assay: Antifungal activity against azoxystrobin-sensitive Zymoseptoria tritici T0210 carrying cytochrome-b G143 allele assessed as fungal growth inhibition after 6 days at 20 degC by microplate without alamar blue assay; conditions: T0210, 144 h
# Zymoseptoria tritici [3] = assay: Antifungal activity against azoxystrobin-resistant Zymoseptoria tritici T0485 carrying cytochrome-b A143 allele assessed as fungal growth inhibition after 6 days at 20 degC by microplate without alamar blue assay; conditions: T0485, 144 h
# Zymoseptoria tritici [4] = assay: Antifungal activity against azoxystrobin-resistant Zymoseptoria tritici T055 carrying cytochrome-b A143 allele assessed as inhibition of spore germination after 2 days at 18 degC by spotting on PDA medium assay; conditions: T055, 48 h
# Zymoseptoria tritici [5] = assay: Antifungal activity against azoxystrobin-resistant Zymoseptoria tritici T0254 carrying cytochrome-b A143 allele assessed as fungal colony perpendicular diameter changes after 10 days at 18 degC by spotting on PDA medium assay; conditions: T0254, 240 h
# Zymoseptoria tritici [6] = assay: Antifungal activity against azoxystrobin-sensitive Zymoseptoria tritici T0403 carrying cytochrome-b G143 allele assessed as fungal growth inhibition after 6 days at 20 degC by microplate without alamar blue assay; conditions: T0403, 144 h
# Zymoseptoria tritici [7] = assay: Antifungal activity against azoxystrobin-sensitive Zymoseptoria tritici T0460 carrying cytochrome-b G143 allele assessed as inhibition of spore germination after 2 days at 18 degC by spotting on PDA medium assay; conditions: T0460, 48 h
# Zymoseptoria tritici [8] = assay: Antifungal activity against azoxystrobin-resistant Zymoseptoria tritici T049 carrying cytochrome-b A143 allele assessed as fungal growth inhibition after 6 days at 20 degC by microplate without alamar blue assay; conditions: T049, 144 h
# Zymoseptoria tritici [9] = assay: Antifungal activity against azoxystrobin-sensitive Zymoseptoria tritici T0278 carrying cytochrome-b G143 allele assessed as inhibition of spore germination after 2 days at 18 degC by spotting on PDA medium assay; conditions: T0278, 48 h
# Zymoseptoria tritici [10] = assay: Antifungal activity against azoxystrobin-sensitive Zymoseptoria tritici T021 carrying cytochrome-b G143 allele assessed as fungal colony perpendicular diameter changes after 10 days at 18 degC by spotting on PDA medium assay; conditions: T021, 240 h
# Zymoseptoria tritici [11] = assay: Antifungal activity against azoxystrobin-sensitive Zymoseptoria tritici T0214 carrying cytochrome-b G143 allele assessed as inhibition of spore germination after 2 days at 18 degC by spotting on PDA medium assay; conditions: T0214, 48 h
# Zymoseptoria tritici [12] = assay: Antifungal activity against azoxystrobin-resistant Zymoseptoria tritici T0254 carrying cytochrome-b A143 allele assessed as fungal growth inhibition after 6 days at 20 degC by microplate without alamar blue assay; conditions: T0254, 144 h
structure (smiles),measurement,setting,value
CO/C=C(/C(=O)OC)c1ccccc1Oc1cc(Oc2ccccc2C#N)ncn1 [AZOXYSTROBIN],IC50,Zymoseptoria tritici [1],0.09 µg/mL
same,IC50,Zymoseptoria tritici [2],0.03 µg/mL
same,IC50,Zymoseptoria tritici [3],> 100 µg/mL
same,IC50,Zymoseptoria tritici [4],15.6 µg/mL
same,IC50,Zymoseptoria tritici [5],10.8 µg/mL
same,IC50,Zymoseptoria tritici [6],9.9 µg/mL
same,IC50,Zymoseptoria tritici [7],0.13 µg/mL
same,IC50,Zymoseptoria tritici [8],> 100 µg/mL
same,IC50,Zymoseptoria tritici [9],0.94 µg/mL
same,IC50,Zymoseptoria tritici [10],0.11 µg/mL
same,IC50,Zymoseptoria tritici [11],0.03 µg/mL
same,IC50,Zymoseptoria tritici [12],32.6 µg/mL
